Assay results published in patent US20090075951A1, “Methods and Reagents for the Treatment of Inflammatory Disorders” (CombinatoRx, Inc., priority 2003, published 2009).
Where two headings read alike, the source gives them in different places.

Tested on: TNFα secretion from PMA/ionomycin stimulated white blood cells from human buffy coat
Experiment: TNFα secretion assay, PMA/ionomycin stimulation
Method: Various concentrations of each test compound were added at the time of stimulation. […] After the plate was washed with 0.1% Tween 20/PBS, an HRP-luminescent substrate was added to each well and light intensity measured using a LJL Analyst plate luminometer.

## C[C@@H]1C[C@H]2[C@@H]3CCC4=CC(=O)C=C[C@]4(C)[C@@]3(F)[C@@H](O)C[C@]2(C)[C@@]1(O)C(=O)CO [Dexamethasone, dexamethasone]
read-out: inhibition of TNFα secretion, Dexamethasone 38 nM, Desipramine nM: 0, 50, 200, 799, 3197, 13000
  inhibition at […]: 31.3%
read-out: inhibition of TNFα secretion, Dexamethasone 38 nM, Imipramine nM: 0, 99, 394, 1578, 6311, 25000
  inhibition at […]: 30%
read-out: inhibition of TNFα secretion, Dexamethasone 38 nM, Nortriptyline nM: 0, 52, 208, 834, 3336, 13000
  inhibition at […]: 31%
read-out: percent inhibition of TNFα secretion, Dexamethasone 38 nM, Amitriptyline nM: 0, 50, 199, 796, 3186, 13000
  inhibition at […]: 31.1%
read-out: percent inhibition of TNFα secretion, Dexamethasone 38 nM, Amoxapine nM: 0, 12, 50, 199, 797, 3187
  inhibition at […]: 32%
read-out: percent inhibition of TNFα secretion, Dexamethasone 38 nM, Clomipramine nM: 0, 45, 178, 712, 2848, 11000
  inhibition at […]: 35.6%

## C[C@]12C=CC(=O)C=C1CC[C@H]1[C@@H]3C[C@@H](O)[C@](O)(C(=O)CO)[C@@]3(C)C[C@H](O)[C@@]12F [Triamcinolone, triamcinolone]
read-out: inhibition of TNFα secretion, Triamcinolone 38 nM, Desipramine nM: 0, 50, 200, 799, 3197, 13000
  inhibition at […]: 16%
read-out: inhibition of TNFα secretion, Triamcinolone 38 nM, Imipramine nM: 0, 99, 394, 1578, 6311, 25000
  inhibition at […]: 16.1%
read-out: inhibition of TNFα secretion, Triamcinolone 38 nM, Nortriptyline nM: 0, 52, 208, 834, 3336, 13000
  inhibition at […]: 7.21%
read-out: inhibition of TNFα secretion, Triamcinolone 2434 nM, Desipramine nM: 0, 50, 200, 799, 3197, 13000
  inhibition at 2.434 µM: 47.1%
read-out: inhibition of TNFα secretion, Triamcinolone 2434 nM, Imipramine nM: 0, 99, 394, 1578, 6311, 25000
  inhibition at 2.434 µM: 47.2%
read-out: inhibition of TNFα secretion, Triamcinolone 2434 nM, Nortriptyline nM: 0, 52, 208, 834, 3336, 13000
  inhibition at 2.434 µM: 33.7%
read-out: inhibition of TNFα secretion, Triamcinolone 2434 nM, Protriptyline nM: 0, 52, 208, 834, 3336, 13000
  inhibition at 2.434 µM: 48.5%
read-out: percent inhibition of TNFα secretion, Triamcinolone 38 nM, Amitriptyline nM: 0, 50, 199, 796, 3186, 13000
  inhibition at […]: 10.8%
read-out: percent inhibition of TNFα secretion, Triamcinolone 38 nM, Amoxapine nM: 0, 12, 50, 199, 797, 3187
  inhibition at […]: 3.52%
read-out: percent inhibition of TNFα secretion, Triamcinolone 38 nM, Clomipramine nM: 0, 45, 178, 712, 2848, 11000
  inhibition at […]: 12.5%
read-out: percent inhibition of TNFα secretion, Triamcinolone 2434 nM, Amitriptyline nM: 0, 50, 199, 796, 3186, 13000
  inhibition at 2.434 µM: 43.8%
read-out: percent inhibition of TNFα secretion, Triamcinolone 2434 nM, Amoxapine nM: 0, 12, 50, 199, 797, 3187
  inhibition at 2.434 µM: 36.1%
read-out: percent inhibition of TNFα secretion, Triamcinolone 2434 nM, Clomipramine nM: 0, 45, 178, 712, 2848, 11000
  inhibition at 2.434 µM: 46.9%

## C[C@H]1C[C@H]2[C@@H]3CCC4=CC(=O)C=C[C@]4(C)[C@@]3(F)[C@@H](O)C[C@]2(C)[C@@]1(O)C(=O)CO [Betamethasone]
read-out: inhibition of TNFα secretion, Betamethasone 38 nM, Imipramine nM: 0, 99, 394, 1578, 6311, 25000
  inhibition at […]: 35.8%
read-out: inhibition of TNFα secretion, Betamethasone 38 nM, Nortriptyline nM: 0, 52, 208, 834, 3336, 13000
  inhibition at […]: 9.93%
read-out: inhibition of TNFα secretion, Betamethasone 2434 nM, Nortriptyline nM: 0, 52, 208, 834, 3336, 13000
  inhibition at 2.434 µM: 38.9%
read-out: percent inhibition of TNFα secretion, Betamethasone 38 nM, Amoxapine nM: 0, 12, 50, 199, 797, 3187
  inhibition at […]: 26.3%
read-out: percent inhibition of TNFα secretion, Betamethasone 38 nM, Clomipramine nM: 0, 45, 178, 712, 2848, 11000
  inhibition at […]: 36%
read-out: percent inhibition of TNFα secretion, Betamethasone 38 nM, Desipramine nM: 0, 50, 200, 799, 3197, 13000
  inhibition at […]: 17.3%
read-out: percent inhibition of TNFα secretion, Betamethasone 2434 nM, Desipramine nM: 0, 50, 200, 799, 3197, 13000
  inhibition at 2.434 µM: 48.9%

## CC(=O)OCC(=O)[C@@]1(OC(C)=O)[C@@H](C)C[C@H]2[C@@H]3C[C@H](F)C4=CC(=O)C=C[C@]4(C)[C@@]3(F)[C@@H](O)C[C@@]21C [Diflorasone Diacetate]
read-out: inhibition of TNFα secretion, Diflorasone Diacetate 30 nM, Desipramine nM: 0, 50, 200, 799, 3197, 13000
  inhibition at 0.03 µM: 25.4%
read-out: inhibition of TNFα secretion, Diflorasone Diacetate 30 nM, Imipramine nM: 0, 99, 394, 1578, 6311, 25000
  inhibition at 0.03 µM: 29.6%
read-out: inhibition of TNFα secretion, Diflorasone Diacetate 30 nM, Protriptyline nM: 0, 52, 208, 834, 3336, 13000
  inhibition at 0.03 µM: 28.2%
read-out: inhibition of TNFα secretion, Diflorasone Diacetate 1941 nM, Desipramine nM: 0, 50, 200, 799, 3197, 13000
  inhibition at 1.941 µM: 46.9%
read-out: inhibition of TNFα secretion, Diflorasone Diacetate 1941 nM, Imipramine nM: 0, 99, 394, 1578, 6311, 25000
  inhibition at 1.941 µM: 45.8%
read-out: inhibition of TNFα secretion, Diflorasone Diacetate 1941 nM, Protriptyline nM: 0, 52, 208, 834, 3336, 13000
  inhibition at 1.941 µM: 45.3%
read-out: percent inhibition of TNFα secretion, Diflorasone Diacetate 30 nM, Amitriptyline nM: 0, 50, 199, 796, 3186, 13000
  inhibition at 0.03 µM: 26.1%
read-out: percent inhibition of TNFα secretion, Diflorasone Diacetate 38 nM, Clomipramine nM by grid row: r5 0, r6 12, r7 50, r8 199, r9 797, r10 3187
  inhibition at […]: 43.2%
read-out: percent inhibition of TNFα secretion, Diflorasone Diacetate 1941 nM, Amitriptyline nM: 0, 50, 199, 796, 3186, 13000
  inhibition at 1.941 µM: 45.2%

## C[C@]12CCC(=O)C=C1CC[C@@H]1[C@@H]2[C@@H](O)C[C@@]2(C)[C@H]1CC[C@]2(O)C(=O)CO [Hydrocortisone, hydrocortisone]
read-out: inhibition of TNFα secretion, Hydrocortisone 21 nM, Desipramine nM: 0, 50, 200, 799, 3197, 13000
  inhibition at […]: -1.79%
read-out: inhibition of TNFα secretion, Hydrocortisone 21 nM, Imipramine nM: 0, 99, 394, 1578, 6311, 25000
  inhibition at […]: -4.17%
read-out: inhibition of TNFα secretion, Hydrocortisone 21 nM, Nortriptyline nM: 0, 52, 208, 834, 3336, 13000
  inhibition at […]: 4.44%
read-out: inhibition of TNFα secretion, Hydrocortisone 21 nM, Protriptyline nM: 0, 52, 208, 834, 3336, 13000
  inhibition at […]: 2.86%
read-out: inhibition of TNFα secretion, Hydrocortisone 83 nM, Desipramine nM: 0, 50, 200, 799, 3197, 13000
  inhibition at […]: 9.01%
read-out: inhibition of TNFα secretion, Hydrocortisone 83 nM, Imipramine nM: 0, 99, 394, 1578, 6311, 25000
  inhibition at […]: 5.91%
read-out: inhibition of TNFα secretion, Hydrocortisone 83 nM, Nortriptyline nM: 0, 52, 208, 834, 3336, 13000
  inhibition at […]: 13.6%
read-out: inhibition of TNFα secretion, Hydrocortisone 83 nM, Protriptyline nM: 0, 52, 208, 834, 3336, 13000
  inhibition at […]: 13.6%
read-out: inhibition of TNFα secretion, Hydrocortisone 1324 nM, Desipramine nM: 0, 50, 200, 799, 3197, 13000
  inhibition at 1.324 µM: 34.4%
read-out: inhibition of TNFα secretion, Hydrocortisone 1324 nM, Imipramine nM: 0, 99, 394, 1578, 6311, 25000
  inhibition at 1.324 µM: 30.3%
read-out: inhibition of TNFα secretion, Hydrocortisone 1324 nM, Nortriptyline nM: 0, 52, 208, 834, 3336, 13000
  inhibition at 1.324 µM: 35.7%
read-out: inhibition of TNFα secretion, Hydrocortisone 1324 nM, Protriptyline nM: 0, 52, 208, 834, 3336, 13000
  inhibition at 1.324 µM: 36.8%
read-out: inhibition of TNFα secretion, Hydrocortisone 5297 nM, Desipramine nM: 0, 50, 200, 799, 3197, 13000
  inhibition at 5.297 µM: 38.6%
read-out: inhibition of TNFα secretion, Hydrocortisone 5297 nM, Imipramine nM: 0, 99, 394, 1578, 6311, 25000
  inhibition at 5.297 µM: 33.8%
read-out: inhibition of TNFα secretion, Hydrocortisone 5297 nM, Nortriptyline nM: 0, 52, 208, 834, 3336, 13000
  inhibition at 5.297 µM: 36.5%
read-out: inhibition of TNFα secretion, Hydrocortisone 5297 nM, Protriptyline nM: 0, 52, 208, 834, 3336, 13000
  inhibition at 5.297 µM: 38.2%
read-out: percent inhibition of TNFα secretion, Hydrocortisone 21 nM, Amitriptyline nM: 0, 50, 199, 796, 3186, 13000
  inhibition at […]: -2.95%
read-out: percent inhibition of TNFα secretion, Hydrocortisone 21 nM, Amoxapine nM: 0, 12, 50, 199, 797, 3187
  inhibition at […]: 1.78%
read-out: percent inhibition of TNFα secretion, Hydrocortisone 21 nM, Clomipramine nM: 0, 45, 178, 712, 2848, 11000
  inhibition at […]: -0.248%
read-out: percent inhibition of TNFα secretion, Hydrocortisone 83 nM, Amitriptyline nM: 0, 50, 199, 796, 3186, 13000
  inhibition at […]: 5.95%
read-out: percent inhibition of TNFα secretion, Hydrocortisone 83 nM, Amoxapine nM: 0, 12, 50, 199, 797, 3187
  inhibition at […]: 11.4%
read-out: percent inhibition of TNFα secretion, Hydrocortisone 83 nM, Clomipramine nM: 0, 45, 178, 712, 2848, 11000
  inhibition at […]: 9.9%
read-out: percent inhibition of TNFα secretion, Hydrocortisone 1324 nM, Amitriptyline nM: 0, 50, 199, 796, 3186, 13000
  inhibition at 1.324 µM: 32.2%
read-out: percent inhibition of TNFα secretion, Hydrocortisone 1324 nM, Amoxapine nM: 0, 12, 50, 199, 797, 3187
  inhibition at 1.324 µM: 31.6%
read-out: percent inhibition of TNFα secretion, Hydrocortisone 1324 nM, Clomipramine nM: 0, 45, 178, 712, 2848, 11000
  inhibition at 1.324 µM: 33%
read-out: percent inhibition of TNFα secretion, Hydrocortisone 5297 nM, Amitriptyline nM: 0, 50, 199, 796, 3186, 13000
  inhibition at 5.297 µM: 36.9%
read-out: percent inhibition of TNFα secretion, Hydrocortisone 5297 nM, Amoxapine nM: 0, 12, 50, 199, 797, 3187
  inhibition at 5.297 µM: 31.9%
read-out: percent inhibition of TNFα secretion, Hydrocortisone 5297 nM, Clomipramine nM: 0, 45, 178, 712, 2848, 11000
  inhibition at 5.297 µM: 37.1%
